Article PMC2811193, “Complementary Roles in Cancer Prevention: Protease Inhibitor Makes the Cancer Preventive Peptide Lunasin Bioavailable” (PLoS ONE, 2010)

Experiments:
[1] = system: MDA-MB-231 tumor xenografts; assay: Breast cancer prevention in MDA-MB-231 xenograft mouse model; assay type: in vivo, athymic NCr-nu/nu mice; conditions: for tumor incidence (mice showing tumors) / tumor incidence lower compared with the BBI group / tumor incidence lower compared with the control: seven weeks post-cells injection
Description: Human MDA-MB-231 breast cancer cells were obtained from ATCC and grown in Leibovitz's L-15 Medium supplemented with 10% FBS, 100 unit/ml penicillin, and 100 µg/ml streptomycin (Invitrogen), in a humidified atmosphere at 37°C.
Mice protocol was approved by ACUC (University of California, Berkeley, CA, USA). Thirty-two six weeks-old athymic NCr-nu/nu mice (National Cancer Institute, Frederick, MD, USA) were acclimatized for 1 week and randomly divided into four groups (n = 8): control group (receiving PBS), BBI-group (receiving BBI at 20 mg/kg body weight), and two lunasin-groups (receiving synthetic lunasin [Chengdu KaiJie Bio-Pharmaceutical Co., Chengdu, P.R. China] at 20 mg/kg body weight and 4 mg/kg body weight). After two months of i.p. treatment three times a week, mice were injected subcutaneously in the right flank with 1×10^7 MDA-MB-231 cells suspended in 0.1 ml of Matrigel Basement Membrane Matrix (Becton Dickinson, Bedford, MA, USA). Tumor growth was monitored by palpation, and the onset when tumors were detectable was noted. Tumor size was measured with calipers, and tumor volume was calculated assuming the shape as ellipsoid. Tumor incidence in percentage was calculated as the number of tumor-bearing mice divided by the total number of mice in each group, whereas tumor generation was calculated as the total number of tumors divided by total number of mice in each group. The volume of the tumor was determined using the following formula: tumor volume = length × width^2 ×0.523 [41].
At the end of the experiment, animals were sacrificed, and tumors were dissected and weighed. Individual tumors were split for fixation in the Shando Glyo-Fixx™ (Thermo Scientific, Pittsburgh, PA, USA) for histological examination. The paraffin-embedded sections were stained with hematoxylin and eosin (H&E).

[2] = Lunasin in blood and liver of rats fed LES diet for 4 weeks; assay type: in vivo; conditions: female, Sprague-Dawley, rat, po, 0.25 % of the diet, rats fed dietary LES for 4 weeks
Text: Sprague-Dawley Rats (Female, 5-weeks old) were purchased from Central Laboratory Animal Inc. (Korea), and experiments were done according with guidelines of the Animal Center at Andong National University (Andong, Korea). Five rats were fed ad libitum with LES and potato starch (0.25% of the diet) for 4 weeks, and then sacrificed. Livers and serum were collected and freeze-dried immediately. One gram of the freeze-dried tissues was extracted with 0.1 M PBS (pH 7.0) (buffer∶tissue ratio (v/w) = 1∶3) at 4°C for 24 hrs, and then centrifuged at 15000 rpm for 1 h. The supernatant protein was further purified by ion exchange chromatography on Biogel resin AG 1-X4 (BioRad), as described by Jeong et al.. Lunasin was further purified by injecting 20 µl of filtrate into the HPLC system equipped with a C18 column (Proteo 90A, Phenomenex Co., Torrance, CA, USA) equilibrated at ambient temperature and an UV detector (295 nm) stabilized with the mobile phase (acetonitrile∶water = 4∶6), at a flow rate of 2.5 ml/min for 15 min. Lunasin was identified by comparison with the retention time of standard synthetic lunasin peak. The lunasin fraction was collected, freeze dried and analyzed by SDS-PAGE and Western-Blot as described above.
Supplementary file pone.0008890.s002.tif: Figure S2 Lunasin was extracted from blood and liver of rats fed control and lunasin-enriched soy (LES) diets for four weeks. […]

[3] = 4 mg/kg body weight i.p., n = 8

level at 672 h ([2]; blood, present as a monomer, Western-blot after anion exchange-HPLC purification, read-out: lunasin concentration in blood): 17.5 ng/mL
tissue level at time at 672 h ([2]; liver, exists as a dimer, Western-blot, read-out: lunasin concentration in liver): 3100 ng/g
Compound: CC[C@H](C)[C@H](NC(=O)[C@H](CCCCN)NC(=O)[C@H](CCC(=O)O)NC(=O)[C@H](CCSC)NC(=O)[C@@H](NC(=O)[C@H](Cc1c[nH]cn1)NC(=O)[C@H](CCCCN)NC(=O)[C@H](CCC(=O)O)NC(=O)[C@H](CS)NC(=O)[C@@H]1CCCN1C(=O)[C@@H](NC(=O)[C@H](CC(C)C)NC(=O)[C@H](CC(N)=O)NC(=O)[C@@H](NC(=O)CNC(=O)[C@H](CCC(N)=O)NC(=O)[C@H](CC(C)C)NC(=O)[C@H](CCC(N)=O)NC(=O)[C@H](CCCCN)NC(=O)[C@H](CCCNC(=N)N)NC(=O)[C@H](CS)NC(=O)[C@H](CO)NC(=O)[C@H](CC(=O)O)NC(=O)[C@H](CCC(N)=O)NC(=O)[C@H](CCC(N)=O)NC(=O)[C@H](Cc1c[nH]cn1)NC(=O)[C@H](CCC(N)=O)NC(=O)[C@H](Cc1c[nH]c2ccccc12)NC(=O)[C@H](CCCCN)NC(=O)[C@@H](N)CO)C(C)C)[C@@H](C)O)[C@@H](C)CC)C(=O)N[C@@H](CCC(N)=O)C(=O)NCC(=O)N[C@@H](CCCNC(=N)N)C(=O)NCC(=O)N[C@@H](CC(=O)O)C(=O)N[C@@H](CC(=O)O)C(=O)N[C@@H](CC(=O)O)C(=O)N[C@@H](CC(=O)O)C(=O)N[C@@H](CC(=O)O)C(=O)N[C@@H](CC(=O)O)C(=O)N[C@@H](CC(=O)O)C(=O)N[C@@H](CC(=O)O)C(=O)N[C@@H](CC(=O)O)C(=O)O [lunasin]
tumor incidence (mice showing tumors) ([1]; 4 mg/kg body weight i.p. three times a week, n = 8): 50%
decrease of the sizes of tumors (tumor volume) versus control mice [1, 3]: 34%
tumor generation lower relative to BBI group [1, 3]: 69%
tumor incidence lower compared with the BBI group ([1]; 4 mg/kg body weight i.p.): 43%
tumor incidence lower compared with the control ([1]; 4 mg/kg body weight i.p.): 33%
tumor generation lower relative to control ([1]; 4 mg/kg body weight i.p., total number of tumors / total number of mice, P = 0.029 vs control, n = 8): 70%
tumor incidence (mice showing tumors) ([1]; 20 mg/kg body weight i.p. three times a week, n = 8): 38%
decrease of the sizes of tumors (tumor volume) versus control mice ([1]; 20 mg/kg body weight i.p., n = 8): 23%
tumor incidence lower compared with the BBI group ([1]; 20 mg/kg body weight i.p.): 57%
tumor incidence lower compared with the control ([1]; 20 mg/kg body weight i.p.): 49%
tumor generation ([1]; 20 mg/kg body weight i.p., versus vehicle-treated group): reduced
weight of tumors at the end of the experiment ([1]; both doses of lunasin (20, 4 mg/kg) compared to control-group (P = 0.2134, 0.1880) and BBI-group (P = 0.0909, 0.0569)): lower
body weight ([1]; i.p. three times a week, BBI 20 mg/kg, lunasin 20 and 4 mg/kg body weight, compared among the four groups, n = 8): No significant differences
appearance of tumors ([1]; lunasin 20 and 4 mg/kg i.p.): delay in the appearance of tumors
